{"source": "patent US20240139167A1", "about": "“LYSOSOME-ASSOCIATED MEMBRANE PROTEIN TARGETING COMPOUNDS AND USES THEREOF” (HADASIT MEDICAL RESEARCH SERVICES AND DEVELOPMENT LTD., priority 2021, published 2024)", "assay": "Irwin test (abnormal spontaneous behavior)", "format": "in vivo, mice", "parameters": "Wounds / Transfer behavior / Tremor / Gait / Tail elevation / Touch escape / Trunk curl / Righting reflex / Salivation / Extension reflex: scale not given here", "source_text": "The inventors have tested Compound 1 (FIG. 1A) for its capacity to correct the deficient motor phenotypes and short lifespan in the APBD mouse model Gbe^ys/ys. Compound 1 is one of 19 PG reducing HTS hits previously discovered by the inventors. It was selected by in silico ADMET (Absorption, Distribution, Metabolism, Excretion, and Toxicity) tests run on these hits to predict which of them should be safe and pharmacokinetically and pharmacodynamically preferred and is therefore worth further pursuit (FIG. 8, compound “A”). […] Following 1 h and 24 h treatments, mice were also examined for abnormal spontaneous behavior, such as immobility, excessive running, stereotyped movements, and abnormal posture (Irwin tests).", "data": [{"smiles": "COCCN(Cc1sccc1C)C(=O)c1cc(C)nc(O)c1", "note": "[Compound 1]", "values": [{"measurement": "Appearance of fur", "setting": "50 mg/kg, 1 h", "value": 2}, {"measurement": "Body position", "setting": "50 mg/kg, 1 h", "value": 3.5}, {"measurement": "Coat color", "setting": "50 mg/kg, 1 h", "value": "Black"}, {"measurement": "Extension reflex", "setting": "50 mg/kg, 1 h", "value": 2}, {"measurement": "Gait", "setting": "50 mg/kg, 1 h", "value": 0}, {"measurement": "Patches of missing fur on body", "setting": "50 mg/kg, 1 h", "value": 0}, {"measurement": "Patches of missing fur on face", "setting": "50 mg/kg, 1 h", "value": 0}, {"measurement": "Pelvic elevation", "setting": "50 mg/kg, 1 h", "value": 2}, {"measurement": "Piloerection", "setting": "50 mg/kg, 1 h", "value": 0}, {"measurement": "Positional passivity", "setting": "50 mg/kg, 1 h", "value": 0}, {"measurement": "Presence of whiskers", "setting": "50 mg/kg, 1 h", "value": 3}, {"measurement": "Righting reflex", "setting": "50 mg/kg, 1 h", "value": 0}, {"measurement": "Salivation", "setting": "50 mg/kg, 1 h", "value": 0}, {"measurement": "Tail elevation", "setting": "50 mg/kg, 1 h", "value": 1}, {"measurement": "Touch escape", "setting": "50 mg/kg, 1 h", "value": 2}, {"measurement": "Transfer behavior", "setting": "50 mg/kg, 1 h", "value": 5}, {"measurement": "Tremor", "setting": "50 mg/kg, 1 h", "value": 0}, {"measurement": "Trunk curl", "setting": "50 mg/kg, 1 h", "value": 0}, {"measurement": "Wounds", "setting": "50 mg/kg, 1 h", "value": 0}, {"measurement": "Appearance of fur", "setting": "50 mg/kg, 24 h", "value": 2}, {"measurement": "Body position", "setting": "50 mg/kg, 24 h", "value": 3.5}, {"measurement": "Coat color", "setting": "50 mg/kg, 24 h", "value": "Black"}, {"measurement": "Extension reflex", "setting": "50 mg/kg, 24 h", "value": 2}, {"measurement": "Gait", "setting": "50 mg/kg, 24 h", "value": 0}, {"measurement": "Patches of missing fur on body", "setting": "50 mg/kg, 24 h", "value": 0}, {"measurement": "Patches of missing fur on face", "setting": "50 mg/kg, 24 h", "value": 0}, {"measurement": "Pelvic elevation", "setting": "50 mg/kg, 24 h", "value": 2}, {"measurement": "Piloerection", "setting": "50 mg/kg, 24 h", "value": 0}, {"measurement": "Positional passivity", "setting": "50 mg/kg, 24 h", "value": 0}, {"measurement": "Presence of whiskers", "setting": "50 mg/kg, 24 h", "value": 3}, {"measurement": "Righting reflex", "setting": "50 mg/kg, 24 h", "value": 0}, {"measurement": "Salivation", "setting": "50 mg/kg, 24 h", "value": 0}, {"measurement": "Tail elevation", "setting": "50 mg/kg, 24 h", "value": 1}, {"measurement": "Touch escape", "setting": "50 mg/kg, 24 h", "value": 2}, {"measurement": "Transfer behavior", "setting": "50 mg/kg, 24 h", "value": 5}, {"measurement": "Tremor", "setting": "50 mg/kg, 24 h", "value": 0}, {"measurement": "Trunk curl", "setting": "50 mg/kg, 24 h", "value": 0}, {"measurement": "Wounds", "setting": "50 mg/kg, 24 h", "value": 0}, {"measurement": "Appearance of fur", "setting": "250 mg/kg, 1 h", "value": 2}, {"measurement": "Body position", "setting": "250 mg/kg, 1 h", "value": 3}, {"measurement": "Coat color", "setting": "250 mg/kg, 1 h", "value": "Black"}, {"measurement": "Extension reflex", "setting": "250 mg/kg, 1 h", "value": 2}, {"measurement": "Gait", "setting": "250 mg/kg, 1 h", "value": 0}, {"measurement": "Patches of missing fur on body", "setting": "250 mg/kg, 1 h", "value": 0}, {"measurement": "Patches of missing fur on face", "setting": "250 mg/kg, 1 h", "value": 0}, {"measurement": "Pelvic elevation", "setting": "250 mg/kg, 1 h", "value": 2}, {"measurement": "Piloerection", "setting": "250 mg/kg, 1 h", "value": 0}, {"measurement": "Positional passivity", "setting": "250 mg/kg, 1 h", "value": 0}, {"measurement": "Presence of whiskers", "setting": "250 mg/kg, 1 h", "value": 3}, {"measurement": "Righting reflex", "setting": "250 mg/kg, 1 h", "value": 0}, {"measurement": "Salivation", "setting": "250 mg/kg, 1 h", "value": 0}, {"measurement": "Tail elevation", "setting": "250 mg/kg, 1 h", "value": 1}, {"measurement": "Touch escape", "setting": "250 mg/kg, 1 h", "value": 2}, {"measurement": "Transfer behavior", "setting": "250 mg/kg, 1 h", "value": 5}, {"measurement": "Tremor", "setting": "250 mg/kg, 1 h", "value": 0}, {"measurement": "Trunk curl", "setting": "250 mg/kg, 1 h", "value": 0}, {"measurement": "Wounds", "setting": "250 mg/kg, 1 h", "value": 0}, {"measurement": "Appearance of fur", "setting": "250 mg/kg, 24 h", "value": 2}, {"measurement": "Body position", "setting": "250 mg/kg, 24 h", "value": 3}, {"measurement": "Coat color", "setting": "250 mg/kg, 24 h", "value": "Black"}, {"measurement": "Extension reflex", "setting": "250 mg/kg, 24 h", "value": 2}, {"measurement": "Gait", "setting": "250 mg/kg, 24 h", "value": 0}, {"measurement": "Patches of missing fur on body", "setting": "250 mg/kg, 24 h", "value": 0}, {"measurement": "Patches of missing fur on face", "setting": "250 mg/kg, 24 h", "value": 0}, {"measurement": "Pelvic elevation", "setting": "250 mg/kg, 24 h", "value": 2}, {"measurement": "Piloerection", "setting": "250 mg/kg, 24 h", "value": 0}, {"measurement": "Positional passivity", "setting": "250 mg/kg, 24 h", "value": 0}, {"measurement": "Presence of whiskers", "setting": "250 mg/kg, 24 h", "value": 3}, {"measurement": "Righting reflex", "setting": "250 mg/kg, 24 h", "value": 0}, {"measurement": "Salivation", "setting": "250 mg/kg, 24 h", "value": 0}, {"measurement": "Tail elevation", "setting": "250 mg/kg, 24 h", "value": 1}, {"measurement": "Touch escape", "setting": "250 mg/kg, 24 h", "value": 2}, {"measurement": "Transfer behavior", "setting": "250 mg/kg, 24 h", "value": 5}, {"measurement": "Tremor", "setting": "250 mg/kg, 24 h", "value": 0}, {"measurement": "Trunk curl", "setting": "250 mg/kg, 24 h", "value": 0}, {"measurement": "Wounds", "setting": "250 mg/kg, 24 h", "value": 0}, {"measurement": "adverse effect in Irwin tests", "setting": "1 h and 24 h treatments", "value": "did not cause any adverse effect"}]}]}
